Molecules are shown by their SMILES. Where two headings read alike, the source gives them in different places. Marks after values point to notes of the source that are not given here. Bounds are passed on as bounds.

A short description of series [1]: Protein binding to human plasma. In kind it is in vitro ADME.
In another series the test system is T. cruzi. The series is described as follows: Acute T. cruzi infection model (bioluminescent T. cruzi). The class given is in vivo, Trypanosoma cruzi. The note with it: 50 mg/kg orally twice a day for five days. The protocol:
FIG. 5 illustrates efficacy of a MetRS inhibitor in acute T. cruzi infection model. (A) Study protocol. Compounds were dosed orally with 50 mg/kg twice a day for five days, and the images were taken of day 6, 13, and 24. (B) Images and (C) graphs of the […] results.
(§1) Several compounds of the disclosure were also evaluated in vivo in C. parvum infection model and in acute T. cruzi infection model. Immunosuppressed mice (NOD SCID Gamma) with Cryptosporidium infection were treated for 5 days with test compounds. Cryptosporidium oocysts were quantified in stool by PCR. […] In FIG. 4, gamma-IFN knockout mice were used and, similarly, treated for 5 days with the test compound 2093. […] With respect to the T. cruzi, an efficacy model was employed in which the infection was monitored using bioluminescent T. cruz. With vehicle treatment, all mice died by day 14 post-infection.

For series [2], the system named is G. lamblia (ATCC GL50803). The series is described as follows: G. lamblia growth inhibition. The class given is cell-based. To be noted: Giardia duodenalis, read-out: (K) G. lamblia (ATCC GL50803) EC50.
The next series concerns Cryptosporidium. The series is described as follows: C. parvum infection model, NOD SCID Gamma mice, oocysts in stool by PCR. In kind it is in vivo, Cryptosporidium parvum. The note with it: treated 5 days. The protocol:
as §1

The test system of the next series is Cryptosporidium parvum. The series can be described thus: C. parvum parasite burden model, gamma-IFN knockout mice, bioluminescence readout. The class given is in vivo. The protocol: FIG. 4 illustrates efficacy of MetRS inhibitors in a parasite burden model of Cryptosporidium parvum infection. About 1,000-fold reduction of parasite burden was observed after treatment by 2093.
as §1

The conditions of series [3]: Data from Drugbank; cited from earlier work.

For the molecule `Fc1ccc2nc(NCCCN[C@@H]3CCNc4c(Cl)cc(Cl)cc43)[nH]c2n1` [Compound 1717, (4R)-6,8-dichloro—N-[3-({5-fluoro-3H-imidazo[4,5-b]pyridin-2-yl}amino)propyl]-1,2,3,4-tetrahydroquinolin-4-amine, reference compound], the “% binding to human plasma” value in series [1] stood at 95.4%.
On to `CCn1c(Cc2ccc(OC)cc2Cl)cn(Cc2nc3nc(Cl)ccc3[nH]2)c1=O` [Compound 2093, 1-({5-chloro-1H-imidazo[4,5-b]pyridin-2-yl}methyl)-4-[(2-chloro-4-methoxyphenyl)methyl]-3-ethyl-2,3-dihydro-1H-imidazol-2-one], for which the tissue parasites result with T. cruzi was “dramatic suppression of tissue parasites”. Moreover, the survival in the series on T. cruzi (vehicle mice all died by day 14) is 100%. In addition, in series [2], the EC50 came to 10 nM. Further, in the series on Cryptosporidium, the suppression of infection result is “over 99%”. In addition, the “reduction of parasite burden” value in the series on Cryptosporidium parvum (FIG. 4) is listed as “About 1,000 fold”. Besides, the “drop in fecal parasites” value with Cryptosporidium parvum (gamma-IFN knockout mice, treated 5 days, bioluminescence) is on record as over 4 log.
With `CC(=O)NC[C@H]1CN(c2ccc(N3CCOCC3)c(F)c2)C(=O)O1` [LNZ, linezolid], the “% binding to human plasma” value in series [3] is recorded as 31* %.

The values above are taken from patent US11584744B2 (UNIVERSITY OF WASHINGTON, priority 2017, dated 2023).
